In PubChem BioAssay AID1208 (EPA DSSTox, 2008) one finds Potency and outcome data, which are given here for 81 compounds.

The test system of this data set is rat chronic carcinogenicity bioassay, TD50. The data set can be described thus: DSSTox (CPDBAS) Carcinogenic Potency Database Summary Rat Bioassay Results. To be noted: for Potency: stronger effect = lower value. A digest of the protocol: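 The activity score maps log10(1/TD50_Rat_mmol) linearly onto 1–100; actives without a computed TD50, such as mixtures, receive 50. Source data are chronic rat carcinogenicity tests, using the most positive experiment for each sex.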

[1] abbreviates: TD50_Rat_Note: no positive results.
The mark [2] stands for this setting: TD50_Rat_Note: no positive results, TargetSites_Rat_Female: no positive results.
Setting [3] is: TD50_Rat_Note: TD50 is harmonic mean of more than one positive test, TargetSites_Rat_Female: liver.
The mark [4] stands for this setting: TD50_Rat_Note: TD50 is harmonic mean of more than one positive test, TargetSites_Rat_Female: stomach.
Where [5] appears, read: TargetSites_Rat_Female: no positive results.

Calls of active or inactive are those of the source.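 Rule for the calls: active = at least one rat sex group has a carcinogenic potency value and tumor site recorded; inconclusive = only rat studies were judged inadequate by the national testing program; inactive = no potency or tumor site, with negative rat experiments.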

As to `Clc1cccc(-c2ccc(Cl)c(Cl)c2Cl)c1Cl`, the Potency (TD50_Rat_Note: TD50 is harmonic mean of more than one positive test, TD50_Rat_mmol was not calculated for this mixture, but Activiity S, TargetSites_Rat_Female: liver) was 4.8 mg/kg/day.

Take `CCN(CC)C(=O)/C(Cl)=C(\C)OP(=O)(OC)OC`: under “TD50_Rat_Note: only experiment is NCI/NTP bioassay inadequate, TargetSites_Rat_Female: NTP bioassay inadequate”, the outcome is “ntp bioassay inadequate”.

As to `CNC(=O)Oc1cccc2ccccc12`, the Potency (TargetSites_Rat_BothSexes: all tumor bearing animals) was 14.1 mg/kg/day.

For the compound `Nc1cnn([C@@H]2O[C@H](CO)[C@@H](O)[C@H]2O)c(=O)n1`, the outcome under setting [1] is “inactive; no positive results”.

Consider `C=CCOC(=O)c1ccccc1C(=O)OCC=C`, for which the outcome under setting [2] is “inactive; no positive results”.

With `O`, the outcome under setting [2] was “inactive; no positive results”.

Take `O=S(=O)(O)c1cc(S(=O)(=O)O)c2c(N=Nc3ccccc3)c(O)ccc2c1`: under setting [2], the outcome is “inactive; no positive results”.

As for `O=C1NCCN1/N=C/c1ccc([N+](=O)[O-])o1`, the Potency (TargetSites_Rat_Female: hematopoietic system, mammary gland) was 5.26 mg/kg/day.

As to `Nc1nc(N)c2nc(-c3ccccc3)c(N)nc2n1`, the outcome under setting [2] is “inactive; no positive results”.

With `O=[N+]([O-])c1ccc2c3c(cccc13)CC2`, the Potency (TD50_Rat_Note: TD50 is harmonic mean of more than one positive test, TargetSites_Rat_Female: clitoral gland, ear Zymbals gland, lung, mammary gland) was 8.67 mg/kg/day.

As for `O=NN1CCC(=O)NC1=O`, the Potency under setting [3] was 0.0983 mg/kg/day.

On to `CN(C)[C@@H]1C(=O)C(C(N)=O)=C(O)[C@@]2(O)C(=O)C3=C(O)c4c(O)cccc4[C@@](C)(O)[C@H]3[C@H](O)[C@@H]12`, for which the outcome under setting [2] was “inactive; no positive results”.

Consider `CCN(Cc1cccc(S(=O)(=O)O)c1)c1ccc(C(=C2C=CC(=[N+](CC)Cc3cccc(S(=O)(=O)[O-])c3)C=C2)c2ccccc2)cc1`, for which, under “TD50_Rat_Note: TD50 is harmonic mean of more than one positive test, TargetSites_Rat_Female: liver, TargetSites_Rat_BothSexes: hematopoietic system”, the Potency was 6060 mg/kg/day.

Take `c1cc(OCC2CO2)cc(OCC2CO2)c1` (stereo not drawn): under setting [4], the Potency is 3.78 mg/kg/day.

`Cc1cc(O)c2c(c1)C(=O)c1cc(O)cc(O)c1C2=O`: the outcome under setting [2] is “inactive; no positive results”.

Take `Clc1ccc2c(c1)C(c1ccccc1)=NCc1nncn1-2`: the outcome under setting [2] is “inactive; no positive results”.

With `CCCCN(CCCC)N=O`, the Potency is 0.691 mg/kg/day.

As for `CCN(CC)C(=O)Nc1ccc(OCC(O)CNC(C)(C)C)c(C(C)=O)c1` (stereo not drawn), the outcome under setting [2] was “inactive; no positive results”.

For `CCNC(=O)Nc1ncc([N+](=O)[O-])s1`, for the setting “TargetSites_Rat_Female: mammary gland”, the Potency is 131 mg/kg/day.

On to `NC(N)=NC(N)=NCCc1ccccc1`, for which the outcome under setting [2] was “inactive; no positive results”.

For the compound `CCSCC[C@H](N)C(=O)O`, the Potency (TD50_Rat_Note: TD50 value is overestimated as upper 99% confidence limit from study with 100% tumor incidence but no lifetable, harmoni) is 4.97 mg/kg/day.

Take `ClCOCCl`: the Potency was 0.00357 mg/kg/day.

Take `O=C(O)COc1ccc(Cl)cc1Cl`: the outcome under setting [2] was “inactive; no positive results”.

With `Nc1ccc(-c2ccccc2)cc1O`, the result under setting [2] was inactive.

On to `C/C=C/C=C/C=O`, for which the Potency under setting [4] was 62.2 mg/kg/day.

Take `COc1cc(/C=C/C(=O)CC(=O)/C=C/c2ccc(O)c(OC)c2)ccc1O`: the outcome runs as follows: under setting [1], “inactive; no positive results”; under setting [2], “inactive; no positive results”.

With `CN(C)c1ccccc1`, the Potency under setting [5] is 125 mg/kg/day.

Take `O=S(=O)(O)c1c(N=Nc2c(O)ccc3ccccc23)ccc2ccccc12`: the outcome under setting [2] is “inactive; no positive results”.

Consider `ClC/C=C/CCl`, for which, where the note is “TD50_Rat_Note: TD50 is harmonic mean of more than one positive test, TargetSites_Rat_Female: nasal cavity”, the Potency is 0.297 mg/kg/day.

Consider `CN1[C@@H]2CC[C@H]1CC(OC(=O)C(CO)c1ccccc1)C2` (stereo partly drawn), for which the outcome under setting [2] was “inactive; no positive results”.

On to `Oc1cc2c(cc1O)[C@H]1c3ccc(O)c(O)c3OC[C@@]1(O)C2`, for which, where the note is “TargetSites_Rat_BothSexes: hematopoietic system”, the Potency was 1000 mg/kg/day.

On to `C=CBr`, for which, under “TD50_Rat_Note: TD50 is harmonic mean of more than one positive test, TargetSites_Rat_Female: ear Zymbals gland, liver, vascular system”, the Potency was 18.5 mg/kg/day.

With `O=C(O)C(Cl)Cl`, the Potency (TD50_Rat_Note: TD50 is harmonic mean of more than one positive test) was 161 mg/kg/day.

On to `CC1SC(C)N(N=O)C(C)S1` (stereo not drawn), for which the Potency (TargetSites_Rat_Female: esophagus, liver, oral cavity) was 0.483 mg/kg/day.

Take `CCCCOC(=O)c1ccccc1C(=O)OCc1ccccc1`: the Potency (TargetSites_Rat_Female: no positive results- CPDB evaluation based on NCI Technical Report) came out at 1040 mg/kg/day.

Take `O=C1CCO1`: under setting [4], the Potency was 1.46 mg/kg/day.

Consider `O=C1OC(=O)c2ccccc21`, for which, under setting [2], the outcome was “inactive; no positive results”.

`ClC1C2(Cl)C3C4C5OC5C5C4C1(Cl)C(Cl)(C53)C2(Cl)Cl` (stereo not drawn): the outcome under setting [2] was “inactive; no positive results”.

As for `CC[C@]1(O)CC2CN(CCc3c([nH]c4ccccc34)[C@@](C(=O)OC)(c3cc4c(cc3OC)N(C)[C@H]3[C@@](O)(C(=O)OC)[C@H](OC(C)=O)[C@]5(CC)C=CCN6CC[C@]43[C@@H]65)C2)C1` (stereo partly drawn), the outcome under setting [1] was “inactive; no positive results”.

Turning to `COc1ccccc1N`, the Potency (TD50_Rat_Note: TD50 is harmonic mean of more than one positive test, TargetSites_Rat_Female: urinary bladder) was 29.7 mg/kg/day.

Consider `CCC1(c2ccccc2)C(=O)N=C(O)NC1=O` (stereo not drawn), for which, under setting [3], the Potency was 86 mg/kg/day.

For the compound `CSCCC(N)C(=O)O` (stereo not drawn), the outcome under setting [1] is “inactive; no positive results”.

Consider `BrCCBr`, for which the Potency (TD50_Rat_Note: TD50 is harmonic mean of more than one positive test, TargetSites_Rat_Female: liver, lung, mammary gland, nasal cavity, pituitary gland, stomach, vascular system) is 1.52 mg/kg/day.

Consider `O=CCCCC=O`, for which, under setting [2], the outcome is “inactive; no positive results”.

For `CC(N)=O`, the Potency under setting [3] is 180 mg/kg/day.

Take `O=[N+]([O-])c1ccc(-c2cscn2)o1`: the Potency (TargetSites_Rat_Female: mammary gland, stomach) is 7.68 mg/kg/day.

With `[O]N=O`, the outcome under setting [1] is “inactive; no positive results”.

In the case of `Brc1cc(-c2ccc(Br)c(Br)c2Br)cc(Br)c1Br`, the outcome under setting [2] was inactive.

Consider `O=C1CCC(=O)O1`, for which the outcome under setting [2] is “inactive; no positive results”.

For `Clc1nc(Cl)nc(Nc2ccccc2Cl)n1`, the outcome under setting [2] was “inactive; no positive results”.

`C1CCC(C(CC2CCCCN2)C2CCCCC2)CC1` (stereo not drawn): the outcome under setting [2] was “inactive; no positive results”.

For the compound `Nc1ccc(S(=O)(=O)c2ccc(N)cc2)cc1`, the Potency under setting [5] is 22.4 mg/kg/day.

Consider `Cc1ncc[nH]1`, for which the Potency (TD50_Rat_Note: TD50 is harmonic mean of more than one positive test, TargetSites_Rat_Female: thyroid gland) was 868 mg/kg/day.

As to `O=C(Nc1ccc2c(c1)Cc1ccccc1-2)C(F)(F)F`, the Potency (TargetSites_Rat_Female: ear Zymbals gland, liver, mammary gland) was 1.62 mg/kg/day.

Turning to `O=C1OC(c2ccc(O)cc2)(c2ccc(O)cc2)c2ccccc21`, under “TD50_Rat_Note: TD50 is harmonic mean of more than one positive test, TargetSites_Rat_Female: adrenal gland”, the Potency was 902 mg/kg/day.

In the case of `OC[P+](CO)(CO)CO`, under setting [2], the outcome was “inactive; no positive results”.

Turning to `CC(C)(c1ccc(O)cc1)c1ccc(O)cc1`, the outcome under setting [2] was “inactive; no positive results”.

As to `CC(=O)OC1CC(C)OC(C)O1` (stereo not drawn), the Potency was 716 mg/kg/day. Further, the outcome under setting [2] was “inactive; no positive results”.

Take `CN(CCO)N=O`: the Potency is 1.29 mg/kg/day.

For the compound `O=C(O)CCC(=O)O`, the outcome under setting [2] is “inactive; no positive results”.

On to `O=CC1CO1` (stereo not drawn), for which the result under setting [2] was inactive.

As to `CN1[C@@H]2CC(OC(=O)[C@@H](CO)c3ccccc3)C[C@H]1[C@@H]1O[C@@H]12` (stereo partly drawn), under setting [2], the outcome was “inactive; no positive results”.

As for `Clc1ccc(C(c2ccc(Cl)cc2)C(Cl)(Cl)Cl)cc1`, the Potency under setting [3] was 84.7 mg/kg/day.

Turning to `N/C(=N\O)c1ccc([N+](=O)[O-])o1`, the outcome under setting [2] was inactive.

Consider `CCc1cccc2c3c([nH]c12)C(CC)(CC(=O)O)OCC3` (stereo not drawn), for which, under setting [2], the outcome was “inactive; no positive results”.

As for `CC(C)C(C(=O)OC(C#N)c1cccc(Oc2ccccc2)c1)c1ccc(Cl)cc1` (stereo not drawn), the outcome under setting [2] was “inactive; no positive results”.

In the case of `CCOC(=O)/C=C\C(=O)OCC`, the outcome under setting [1] was “inactive; no positive results”.

Regarding `CC(C)Oc1ccccc1OC(=O)N(C)N=O`, the Potency was 0.364 mg/kg/day.

For `O=C/C=C/c1ccccc1`, under setting [2], the outcome is “inactive; no positive results”.

Regarding `Oc1c(Cl)cc(Cl)c(Cl)c1Cc1c(O)c(Cl)cc(Cl)c1Cl`, the outcome under setting [2] was “inactive; no positive results”.

Regarding `ClCc1ccccc1`, the outcome under setting [2] was “inactive; no positive results”.

Take `CC(C)Cc1ccc(C(C)C(=O)O)cc1` (stereo not drawn): the outcome under setting [1] is “inactive; no positive results”.

Take `CCC[CH2][Sn]([CH2]CCC)([O]C(C)=O)[O]C(C)=O`: the outcome (TD50_Rat_Note: no positive results, TargetSites_Rat_Female: NTP bioassay inadequate) is “inactive; no positive results”.

For the compound `O=NN1CCOCC1`, the Potency (TD50_Rat_Note: TD50 is harmonic mean of more than one positive test, TargetSites_Rat_Female: liver, vascular system) is 0.109 mg/kg/day.

As to `Cc1ccc(O)c(O)c1`, for the setting “TD50_Rat_Note: TD50 is harmonic mean of more than one positive test, harmonic mean of TD50 includes a value for upper 99% confidence li, TargetSites_Rat_Female: stomach”, the Potency is 248 mg/kg/day.

Regarding `CCCCCCCCCCN(C)N=O`, the Potency is 1.26 mg/kg/day.

Regarding `O=NN1CCCCC1C(=O)O` (stereo not drawn), the outcome under setting [2] was “inactive; no positive results”.

Regarding `CCCCC(CC)CO` (stereo not drawn), the outcome under setting [2] is “inactive; no positive results”.

With `C=CN1CCCC1=O`, for the setting “TD50_Rat_Note: TD50 is harmonic mean of more than one positive test, TargetSites_Rat_Female: liver, nasal cavity, oral cavity”, the Potency was 12 mg/kg/day.

For the compound `CCOCCc1c(-c2ccccc2)nc(N)n2ncnc12`, the Potency (TD50_Rat_Note: TD50 is harmonic mean of more than one positive test, TargetSites_Rat_Female: liver, mammary gland) is 548 mg/kg/day.

For `Cc1cccn2c1nc1ccc(N)nc12`, the Potency (TD50_Rat_Note: TD50 is harmonic mean of more than one positive test, TargetSites_Rat_Female: clitoral gland, ear Zymbals gland, large intestine, liver, nervous system, small intestine) is 4.69 mg/kg/day.
